In patent US20230292776A1, “GAS PHASE TREATMENT OF PRODUCE” (priority 2022, published 2023):

Tests used:
avocados = tested on: avocados; parameters: species or system avocado; conditions: in vivo
Method: Example 11. The ripening characteristics of avocados exposed to AITC vapor was analyzed. Treatment groups consisted of avocados that were: exposed to the vapor of 125 μL of AITC in a Petri dish for 30 min and 18 hours; exposed to the vapor of 500 μL of AITC for 30 minutes and 18 hours; untreated and kept 18 hours in a bin; and treated with a coating agent. Two sets of the preceding test groups were studied. One set was treated when cold along with coated fruit (i.e., fruit treated with a coating agent (95 wt % glyceryl monostearate and 5 wt % sodium stearate) and another set was treated when warm (one day out of cold storage). Daily measurements were made of respiration and firmness (using a durometer). At the start of the test, the avocados were placed in cold storage. After one day, the cold treated avocados were treated with AITC directly after removal from cold storage. The coated group was treated at this time. The warm treated avocados were allowed to warm to room temperature. On the second day, measurements were begun on the cold treated avocados and AITC treatments began on the warm treated samples. On the third day, measurements began on the warm treated groups. […]
Example 23: The ripening characteristics of avocados exposed to AITC vapor, a coating agent (95 wt % glyceryl monostearate and 5 wt % sodium stearate), and AITC plus the coating agent was analyzed. […]

[1] = tested on: non-Pd latent fungal infection; test: AITC vapor against non-Pd latent fungal infection in mandarins; type: in vivo; conditions: Example 5; 125 μL (730 ppm), 1 hour exposure
Method: Example 5. The antifungal activity of a range of AITC vapor exposure times was tested to determine the effects against Pd in mandarins. All samples were wounded by puncturing with a screw. Mandarins were infected by dispensing 1000 Pd spores suspended in 10 μL of water in the wound. The fruit was then placed in an airtight container, 125 μL of AITC was dispensed onto a Whatman filter paper disc, the disc suspended in front of a battery-powered fan, and the container closed for 15 minutes to 2 hours. The test groups were then left at ambient temperature, high humidity, and assessed for Pd mold after 6 days. The test groups consisted of mandarins that were: uninfected and untreated; infected and untreated; infected and treated with 0.5 g/L imazalil; infected, treated with 125 μL of AITC on the filter paper, and exposed to the vapor for 15 minutes, 30 minutes, 1 hour, and 2 hours. […] A non-Pd latent fungal infection confounded results for the imazalil control and the 1 hour AITC treatment. […] A 30 minute exposure to an AITC vapor concentration of 730 ppm appeared to either substantially prevent mold infection or reduce the severity of infection. Longer exposure time increased the antifungal efficacy. […] Longer exposure times were effective at largely eliminating these pathogens.

In the case of `C=CCN=C=S` [AITC, allyl isothiocyanate], the “effect on avocado peel and firmness” value (avocados) is reported as “causes darkening and thickening of the avocado peel and a prolonged feeling a firmness” and the “response of latent pathogens to AITC vapor” value [1] is reported as “substantially resistant to AITC vapor”.
